According to ChEMBL document CHEMBL1134425, “alpha-Amino-beta-sulphone hydroxamates as potent MMP-13 inhibitors that spare MMP-1” (Bioorg Med Chem Lett, 2001):

Columns and labels:
[1] = Maximum plasma concentration dosed orally in rats; assay type: ADME, organism-based; design: route oral; settings: rat, po
Collagenase 3 = Collagenase 3 (Homo sapiens, UniProt P45452); experiment: Inhibition of Matrix metalloprotease-13
Interstitial collagenase = target: T1, Interstitial collagenase (Homo sapiens, UniProt P03956); experiment: Inhibition of Matrix metalloprotease-1
T1 sequence (P03956 whole entry): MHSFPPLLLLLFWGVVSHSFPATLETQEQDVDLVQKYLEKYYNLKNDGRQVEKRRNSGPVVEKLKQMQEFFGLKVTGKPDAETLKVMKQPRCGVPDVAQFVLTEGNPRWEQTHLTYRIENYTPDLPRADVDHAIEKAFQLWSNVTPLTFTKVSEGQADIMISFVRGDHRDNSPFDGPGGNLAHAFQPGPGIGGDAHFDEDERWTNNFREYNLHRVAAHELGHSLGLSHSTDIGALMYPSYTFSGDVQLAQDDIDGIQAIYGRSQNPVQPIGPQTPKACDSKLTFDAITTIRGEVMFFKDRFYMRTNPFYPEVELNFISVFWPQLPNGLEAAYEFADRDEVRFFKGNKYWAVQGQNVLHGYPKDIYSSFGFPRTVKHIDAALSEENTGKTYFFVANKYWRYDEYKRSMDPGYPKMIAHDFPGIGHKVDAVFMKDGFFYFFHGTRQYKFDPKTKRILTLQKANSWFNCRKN

[2] = target: Matrix metalloproteinase (1 and 13) (Homo sapiens) (UniProt P45452+P03956); experiment: Selectivity for Matrix metalloprotease-1 over Matrix metalloprotease-13; assay type: protein assay
[3] = Maximum plasma concentration dosed orally in rats after 6 hours; assay type: ADME, organism-based; design: route oral; settings: rat, po

| Cmax [1] [ng/mL] | IC50 (Collagenase 3) [nM] | IC50 (Interstitial collagenase) [nM] | Selectivity [2] | Cmax [3] [ng/mL] | SMILES |
| --- | --- | --- | --- | --- | --- |
| < 200 | 0.4 | 350 | 870 | – | COc1cccc(OC)c1C(=O)N[C@H](CS(=O)(=O)c1ccc(Oc2ccccc2)cc1)C(=O)NO |
| – | – | – | > 40 | – | COc1ccc(S(=O)(=O)CC(NC(=O)CNC(=O)OCc2ccccc2)C(=O)NO)cc1 (centres undefined) |
| – | – | – | > 1700 | – | CC(=O)NC(CS(=O)(=O)c1ccc(Sc2ccccc2)cc1)C(=O)NO (centres undefined) |
| – | – | – | > 2700 | – | O=C(NC(CS(=O)(=O)c1ccc(Sc2ccccc2)cc1)C(=O)NO)OCc1ccccc1 (centres undefined) |
| < 200 | 0.8 | 900 | 1100 | – | O=C(N[C@H](CS(=O)(=O)c1ccc(Oc2ccccc2)cc1)C(=O)NO)c1ccncc1 |
| – | – | – | > 12000 | – | O=C(CNC(=O)OCc1ccccc1)NC(CS(=O)(=O)c1ccc(Sc2ccccc2)cc1)C(=O)NO (centres undefined) |
| 6660 | 0.4 | 440 | 1100 | 49 | CN[C@H](CS(=O)(=O)c1ccc(Oc2ccccc2)cc1)C(=O)NO |
| – | – | – | 5300 | – | CN(C(=O)OC(C)(C)C)[C@H](CS(=O)(=O)c1ccc(Oc2ccccc2)cc1)C(=O)NO |
| – | 1.1 | 770 | 700 | – | CC(=O)NC(CS(=O)(=O)c1ccc(Oc2ccccc2)cc1)C(=O)NO (centres undefined) |
| – | – | – | 2400 | – | CN(Cc1ccccc1)[C@H](CS(=O)(=O)c1ccc(Oc2ccccc2)cc1)C(=O)NO |
| – | 0.4 | 8000 | 20000 | – | O=C(N[C@H](CS(=O)(=O)c1ccc(Sc2ccccc2)cc1)C(=O)NO)OCc1ccccc1 |
| 2450 | 0.2 | 90 | 450 | 60 | CC(=O)N(C)[C@H](CS(=O)(=O)c1ccc(Oc2ccccc2)cc1)C(=O)NO |
| – | – | – | 1500 | – | Cc1ccc(S(=O)(=O)NC(CS(=O)(=O)c2ccc(Sc3ccccc3)cc2)C(=O)NO)cc1 (centres undefined) |
| – | – | – | 17 | – | COc1ccc(S(=O)(=O)CC(N)C(=O)NO)cc1 (centres undefined) |
| – | – | – | 670 | – | Cc1ccc(S(=O)(=O)NC(CS(=O)(=O)c2ccc(Oc3ccccc3)cc2)C(=O)NO)cc1 (centres undefined) |
| – | 15 | 1500 | 100 | – | COc1ccc(S(=O)(=O)CC(NC(=O)OC(C)(C)C)C(=O)NO)cc1 (centres undefined) |
| – | 4 | > 10000 | > 2500 | – | CC(C)(C)OC(=O)N[C@H](CS(=O)(=O)c1ccc(Sc2ccccc2)cc1)C(=O)NO |
| – | 2.9 | 10000 | 3400 | – | CC(=O)N[C@H](CS(=O)(=O)c1ccc(Sc2ccccc2)cc1)C(=O)NO |
| < 200 | 0.3 | 500 | 1600 | – | CC(C)(C)OC(=O)N[C@H](CS(=O)(=O)c1ccc(Oc2ccccc2)cc1)C(=O)NO |
| – | – | – | 20 | – | COc1ccc(S(=O)(=O)CC(NC(C)=O)C(=O)NO)cc1 (centres undefined) |
| 710 | 2 | – | 130 | – | CN(C(=O)Cc1ccncc1)[C@H](CS(=O)(=O)c1ccc(Oc2ccccc2)cc1)C(=O)NO |
| – | – | – | 420 | – | NC(CS(=O)(=O)c1ccc(Sc2ccccc2)cc1)C(=O)NO (centres undefined) |
| – | 1.1 | 1400 | 1300 | – | O=C(NC(CS(=O)(=O)c1ccc(Oc2ccccc2)cc1)C(=O)NO)OCc1ccccc1 (centres undefined) |
